Assay [1] relates to Hepatocyte growth factor receptor (Homo sapiens), P08581 [D1228H]. Description: Selectivity interaction (LanthaScreen Eu Kinase Binding Assay) EUB0001632a MET. The following applies: at 10 µM. In general terms: Time-resolved FRET reads energy transfer from a long-lived donor to a nearby acceptor.
Assay [2] deals with Mitogen-activated protein kinase 1 (Homo sapiens, UniProt P28482). The experiment in a line: Selectivity interaction (KinomeScan (DiscoverX)) EUB0000666a MAPK1. The conditions noted are these: at 10 µM.
Sequence of Mitogen-activated protein kinase 1 (P28482 whole entry): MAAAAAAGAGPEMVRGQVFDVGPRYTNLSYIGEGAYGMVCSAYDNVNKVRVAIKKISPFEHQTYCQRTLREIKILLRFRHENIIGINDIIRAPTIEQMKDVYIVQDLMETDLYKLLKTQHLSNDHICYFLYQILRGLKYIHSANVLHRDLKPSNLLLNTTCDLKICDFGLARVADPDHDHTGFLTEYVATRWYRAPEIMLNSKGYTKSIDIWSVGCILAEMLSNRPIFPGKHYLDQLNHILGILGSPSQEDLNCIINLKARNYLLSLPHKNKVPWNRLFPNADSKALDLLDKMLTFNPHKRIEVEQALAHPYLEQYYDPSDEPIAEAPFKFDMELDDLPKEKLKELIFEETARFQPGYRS
In assay [3] the target is T1, MAP kinase-activated protein kinase 5 (Homo sapiens) (UniProt Q8IW41).
T1 sequence (whole entry): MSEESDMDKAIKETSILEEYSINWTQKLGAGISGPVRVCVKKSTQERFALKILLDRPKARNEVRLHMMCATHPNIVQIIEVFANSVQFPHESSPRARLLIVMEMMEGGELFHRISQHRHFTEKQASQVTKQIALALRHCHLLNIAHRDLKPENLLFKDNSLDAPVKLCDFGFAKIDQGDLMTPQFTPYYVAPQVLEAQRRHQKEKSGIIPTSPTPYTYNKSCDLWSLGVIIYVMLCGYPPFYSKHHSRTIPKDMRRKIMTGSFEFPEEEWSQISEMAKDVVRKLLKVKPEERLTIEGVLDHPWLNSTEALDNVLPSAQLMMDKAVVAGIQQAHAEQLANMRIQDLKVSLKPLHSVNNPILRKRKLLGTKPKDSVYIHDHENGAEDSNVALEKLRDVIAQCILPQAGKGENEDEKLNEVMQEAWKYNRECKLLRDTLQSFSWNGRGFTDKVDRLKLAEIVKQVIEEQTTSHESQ
The experiment in a line: Selectivity interaction (SelectScreen profiling (Invitrogen)) EUB0000607a MAPKAPK5. The following applies: at 2 µM.

Assay [4] deals with T2, Uncharacterized serine/threonine-protein kinase SBK3 (Homo sapiens) (UniProt P0C264).
T2 sequence (whole entry): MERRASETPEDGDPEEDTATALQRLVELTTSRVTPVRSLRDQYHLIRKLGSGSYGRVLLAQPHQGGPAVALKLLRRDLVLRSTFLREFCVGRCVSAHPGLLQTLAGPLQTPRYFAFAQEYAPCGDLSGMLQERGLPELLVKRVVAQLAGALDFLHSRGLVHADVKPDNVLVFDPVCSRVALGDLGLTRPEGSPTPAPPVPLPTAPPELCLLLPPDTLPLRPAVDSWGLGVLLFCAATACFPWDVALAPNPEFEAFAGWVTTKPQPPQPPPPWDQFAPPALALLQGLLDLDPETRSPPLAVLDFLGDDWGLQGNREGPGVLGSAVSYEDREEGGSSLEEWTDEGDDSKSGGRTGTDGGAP
Description: Selectivity interaction (KinomeScan (DiscoverX)) EUB0000607a SBK3. The conditions noted are these: at 10 µM.

For assay [5], the target named is T3, cGMP-dependent protein kinase 2 (Homo sapiens) (UniProt Q13237).
T3 sequence (whole entry): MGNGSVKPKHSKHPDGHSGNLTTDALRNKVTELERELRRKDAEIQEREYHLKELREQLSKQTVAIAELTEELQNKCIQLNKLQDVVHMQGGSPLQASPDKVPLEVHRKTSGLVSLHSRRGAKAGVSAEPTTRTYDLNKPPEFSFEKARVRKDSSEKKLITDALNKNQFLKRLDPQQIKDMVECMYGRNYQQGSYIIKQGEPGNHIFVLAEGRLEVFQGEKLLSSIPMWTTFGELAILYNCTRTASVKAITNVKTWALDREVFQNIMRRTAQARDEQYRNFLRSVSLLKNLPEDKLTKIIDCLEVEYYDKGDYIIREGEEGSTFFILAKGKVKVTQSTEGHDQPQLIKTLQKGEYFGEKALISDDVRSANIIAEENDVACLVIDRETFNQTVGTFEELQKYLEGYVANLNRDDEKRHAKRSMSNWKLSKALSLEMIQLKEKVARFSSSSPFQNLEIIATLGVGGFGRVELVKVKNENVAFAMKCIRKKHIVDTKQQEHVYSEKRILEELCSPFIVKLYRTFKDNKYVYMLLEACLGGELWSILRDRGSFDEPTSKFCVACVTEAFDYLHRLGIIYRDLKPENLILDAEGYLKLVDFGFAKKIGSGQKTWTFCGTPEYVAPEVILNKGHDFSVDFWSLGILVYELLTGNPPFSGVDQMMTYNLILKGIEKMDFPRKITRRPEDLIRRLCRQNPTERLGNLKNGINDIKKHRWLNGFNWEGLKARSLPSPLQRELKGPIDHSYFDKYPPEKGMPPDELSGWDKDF
Description: Selectivity interaction (ProQinase) EUB0000171b PRKG2.

Assay [6] concerns the target Dual specificity mitogen-activated protein kinase kinase 2 (Homo sapiens) (UniProt P36507). The experiment in a line: Selectivity interaction (KinomeScan (DiscoverX)) EUB0000618a MAP2K2. The conditions noted are these: at 10 µM.
The target in assay [7] is Tyrosine-protein kinase Blk (Homo sapiens) (UniProt P51451). Description: Selectivity interaction (KinomeScan (DiscoverX)) EUB0000092b BLK. The conditions noted are these: at 10 µM.
Sequence of Tyrosine-protein kinase Blk (Homo sapiens) (P51451 2-505 limits assumed): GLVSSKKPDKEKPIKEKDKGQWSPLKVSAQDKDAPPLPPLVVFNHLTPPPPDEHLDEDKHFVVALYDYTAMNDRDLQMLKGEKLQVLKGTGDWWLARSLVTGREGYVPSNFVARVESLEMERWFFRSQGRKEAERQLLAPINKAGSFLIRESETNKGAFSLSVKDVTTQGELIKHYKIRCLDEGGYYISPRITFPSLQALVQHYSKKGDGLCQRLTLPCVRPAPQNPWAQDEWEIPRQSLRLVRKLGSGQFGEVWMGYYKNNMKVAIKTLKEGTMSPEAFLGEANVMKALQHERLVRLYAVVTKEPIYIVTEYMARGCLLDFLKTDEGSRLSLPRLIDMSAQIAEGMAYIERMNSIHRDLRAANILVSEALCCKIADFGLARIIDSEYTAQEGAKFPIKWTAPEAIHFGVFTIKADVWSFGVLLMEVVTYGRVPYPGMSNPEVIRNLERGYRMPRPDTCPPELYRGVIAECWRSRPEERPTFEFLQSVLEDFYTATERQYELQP

Sequence of Dual specificity mitogen-activated protein kinase kinase 2 (Homo sapiens) (P36507 whole entry): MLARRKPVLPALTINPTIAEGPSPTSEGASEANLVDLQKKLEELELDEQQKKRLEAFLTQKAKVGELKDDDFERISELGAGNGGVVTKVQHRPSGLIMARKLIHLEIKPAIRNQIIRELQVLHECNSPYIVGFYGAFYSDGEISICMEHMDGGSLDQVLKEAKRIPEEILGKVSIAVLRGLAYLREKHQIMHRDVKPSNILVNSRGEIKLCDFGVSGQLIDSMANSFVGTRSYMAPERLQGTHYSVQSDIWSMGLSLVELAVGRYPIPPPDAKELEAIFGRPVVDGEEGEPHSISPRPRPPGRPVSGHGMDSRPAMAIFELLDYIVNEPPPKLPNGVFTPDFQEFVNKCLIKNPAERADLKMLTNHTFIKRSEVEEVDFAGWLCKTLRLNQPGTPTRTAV
Sequence of Hepatocyte growth factor receptor (Homo sapiens), P08581 [D1228H] (P08581 whole entry D1228H): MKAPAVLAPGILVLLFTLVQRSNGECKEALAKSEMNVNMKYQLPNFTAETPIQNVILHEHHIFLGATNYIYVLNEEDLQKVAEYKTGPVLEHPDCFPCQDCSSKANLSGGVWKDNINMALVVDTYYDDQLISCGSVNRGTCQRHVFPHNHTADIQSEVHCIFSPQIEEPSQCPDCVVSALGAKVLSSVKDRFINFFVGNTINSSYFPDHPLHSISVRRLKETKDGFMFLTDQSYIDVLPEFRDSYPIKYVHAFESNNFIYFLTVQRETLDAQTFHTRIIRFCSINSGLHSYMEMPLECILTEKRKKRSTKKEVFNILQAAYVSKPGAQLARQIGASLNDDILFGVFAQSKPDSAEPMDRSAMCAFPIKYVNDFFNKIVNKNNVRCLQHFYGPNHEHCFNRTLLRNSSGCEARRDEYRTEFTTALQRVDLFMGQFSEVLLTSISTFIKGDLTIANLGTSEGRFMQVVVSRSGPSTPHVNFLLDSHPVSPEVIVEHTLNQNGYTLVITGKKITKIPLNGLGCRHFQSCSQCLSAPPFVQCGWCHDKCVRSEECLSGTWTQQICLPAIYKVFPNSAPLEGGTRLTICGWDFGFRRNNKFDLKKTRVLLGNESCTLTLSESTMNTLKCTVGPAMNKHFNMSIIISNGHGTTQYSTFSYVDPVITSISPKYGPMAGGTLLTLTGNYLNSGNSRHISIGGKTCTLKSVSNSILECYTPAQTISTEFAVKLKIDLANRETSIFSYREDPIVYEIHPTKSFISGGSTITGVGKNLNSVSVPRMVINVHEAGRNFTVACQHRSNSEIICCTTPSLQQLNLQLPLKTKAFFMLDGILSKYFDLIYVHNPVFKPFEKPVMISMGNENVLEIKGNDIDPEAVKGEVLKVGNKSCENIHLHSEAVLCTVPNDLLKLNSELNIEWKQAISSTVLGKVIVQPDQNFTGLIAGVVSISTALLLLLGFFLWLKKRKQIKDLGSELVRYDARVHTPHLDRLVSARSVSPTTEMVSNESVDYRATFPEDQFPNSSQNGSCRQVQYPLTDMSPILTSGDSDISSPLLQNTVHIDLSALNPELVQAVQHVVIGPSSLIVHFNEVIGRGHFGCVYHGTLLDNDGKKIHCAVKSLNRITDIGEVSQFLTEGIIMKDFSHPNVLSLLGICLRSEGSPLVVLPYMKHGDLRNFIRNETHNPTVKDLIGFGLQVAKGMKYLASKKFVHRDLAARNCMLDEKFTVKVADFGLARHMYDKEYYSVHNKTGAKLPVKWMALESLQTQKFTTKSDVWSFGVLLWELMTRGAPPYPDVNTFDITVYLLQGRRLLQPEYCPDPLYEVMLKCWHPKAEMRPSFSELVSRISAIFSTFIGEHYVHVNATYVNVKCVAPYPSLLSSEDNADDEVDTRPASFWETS

On to `Cn1cc(-n2cnc3c(NCc4nc5cc(Cl)c(Cl)cc5[nH]4)nc(N4CCOCC4)nc32)cn1`, for which, in assay [1], the % of inhibition was -208%.

`O=C(NOC[C@H](O)CO)c1ccc(F)c(F)c1Nc1ccc(I)cc1F` gave a % of control in assay [2] of 100%. On to `CNC(=O)Nc1ccc(-c2nc(N3CC4CCC(C3)O4)c3cnn(C4CCC5(CC4)OCCO5)c3n2)cc1`, for which the % of inhibition in assay [3] worked out at 5%. In assay [4], this compound gave a % of control of 96%. Consider `C=CC(=O)Nc1cccc(C(=O)Nc2ccc(Nc3cc(-c4[nH]c(SC)nc4C)ccn3)cc2)c1`, for which the values for the % of control in assay [5] (at 1 µM) and in assay [5] (at 5 µM) were 84% and 81%, respectively. Consider `O[C@H]1CC[C@H](Nc2ncc3nc(Nc4c(F)cc(F)cc4F)n([C@H]4CCOC4)c3n2)CC1`, for which the % of control in assay [6] worked out at 100%. The compound `CCC(=O)N1CCN(c2ccc(-n3c(=O)ccc4cnc5ccc(-c6cnc7ccccc7c6)cc5c43)cc2C(F)(F)F)CC1` gave a % of control in assay [7] of 75%.

These data come from ChEMBL document CHEMBL5465560, “Selectivity Literature for EUbOPEN Chemogenomic Library” (2024).
